Consider 49 compounds from patent publication US20250304567A1, “PYRROLIDIONE DERIVATIVES AS INHIBITORS OF NF KAPPA B INDUCING KINASE” (priority 2022, published 2025).

Molecules are shown by their SMILES. Where only a bound is given, the exact number is not on record here.

By IC50 is commonly meant the midpoint of a concentration-inhibition curve.

The target in assay [1] is Recombinant Human NF-kappaB-Inducing Kinase (NIK/MAP3K14) (Homo sapiens, UniProt Q99558). In words: Inhibition of auto-phosphorylation of recombinant human NIK/MAP3K14 activity (AlphaScreen). In kind it is biochemical. Particulars: 5 μM ATP, 1 nM NIK, average if tested more than once. The procedure, abridged:
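AlphaScreen detection of phospho-Ser176/180 after 1 nM GST-NIK auto-phosphorylates for 2 h at 25 °C with 5 μM ATP (50 mM Tris pH 7.5, 0.7% DMSO). IC50s come from sigmoidal curves of % inhibition against log dose, using enzyme-free, ATP-free low controls and full-activity high controls.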
On the technique in general: Bead proximity is the source of the signal in Alpha formats.

Assay [2] concerns p-IKKa levels in L363 (NIK translocated multiple myeloma) cells. The assay can be described thus: Effect of compounds on p-IKKa levels in L363 (NIK translocated multiple myeloma) cells (AlphaLISA SureFire Ultra p-IKKa Ser176/180). It counts as cell-based, human. Particulars: Homo sapiens, L-363, p-IKKa levels in L363 cells; average if tested more than once; read-out: Assay 2 IC50. The procedure, abridged: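 Phospho-IKKa (Ser176/180) in lysates quantified by AlphaLISA after 6 h compound exposure, 11-point threefold dilutions, 0.3% DMSO. L363 cells were pre-stimulated overnight and assayed with 250 ng/ml BAFF and 10 μM MG132; % inhibition fitted sigmoidally for IC50, duplicate curves.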

Recombinant Human NF-kappaB-Inducing Kinase (NIK/MAP3K14), sequence (Q99558 whole entry): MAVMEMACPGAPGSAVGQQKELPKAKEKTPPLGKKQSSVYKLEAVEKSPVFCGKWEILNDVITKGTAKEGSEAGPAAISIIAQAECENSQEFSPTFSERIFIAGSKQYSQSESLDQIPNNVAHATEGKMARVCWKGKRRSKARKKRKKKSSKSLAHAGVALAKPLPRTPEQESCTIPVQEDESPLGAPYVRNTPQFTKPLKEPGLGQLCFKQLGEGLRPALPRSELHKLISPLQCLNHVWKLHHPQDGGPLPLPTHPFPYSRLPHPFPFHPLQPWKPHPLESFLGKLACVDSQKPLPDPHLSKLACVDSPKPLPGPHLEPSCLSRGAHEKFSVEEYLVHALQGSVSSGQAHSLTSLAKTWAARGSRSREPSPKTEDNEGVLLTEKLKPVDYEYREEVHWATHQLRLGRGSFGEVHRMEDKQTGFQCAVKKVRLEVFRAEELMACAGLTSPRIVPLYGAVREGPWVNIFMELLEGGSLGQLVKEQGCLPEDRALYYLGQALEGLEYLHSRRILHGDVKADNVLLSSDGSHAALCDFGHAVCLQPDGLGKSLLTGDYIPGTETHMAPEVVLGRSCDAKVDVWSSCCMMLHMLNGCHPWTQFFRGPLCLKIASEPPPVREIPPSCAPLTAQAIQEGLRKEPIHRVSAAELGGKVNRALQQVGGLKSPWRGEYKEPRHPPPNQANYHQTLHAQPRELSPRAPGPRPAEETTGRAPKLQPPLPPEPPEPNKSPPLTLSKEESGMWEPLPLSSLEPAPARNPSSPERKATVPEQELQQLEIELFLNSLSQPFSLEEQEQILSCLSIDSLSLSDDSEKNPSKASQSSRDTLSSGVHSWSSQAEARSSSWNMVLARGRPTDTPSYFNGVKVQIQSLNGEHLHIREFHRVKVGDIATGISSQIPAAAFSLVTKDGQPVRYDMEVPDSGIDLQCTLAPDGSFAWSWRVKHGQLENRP

Take `CN1CC[C@@](O)(c2cccc(-c3nc(-c4ccnc(NC[C@H]5CCOC5)n4)cs3)c2)C1=O` [Example 192]: the figures for the IC50 in assay [1] and in assay [2] were 0.1 to 0.5 µM and above 0.501 µM, respectively.
On the same counts, the results for `CN1CC[C@@](O)(c2cccc(-c3nc(-c4ccnc(NCc5cnccn5)n4)cs3)c2)C1=O` [Example 194] are 0.1 to 0.5 µM and above 0.501 µM.
With `CN1CC[C@@](O)(c2cccc(-c3nc(-c4ccnc(NCc5cn(C)cn5)n4)cs3)c2)C1=O` [Example 196], the IC50 is 0.1 to 0.5 µM in assay [1] and above 0.501 µM in assay [2].
As to `CN1CC[C@@](O)(c2cccc(-c3nc(-c4ccnc(NCc5ccnn5C)n4)cs3)c2)C1=O` [Example 197], the IC50 in assay [1] is below 0.1 µM; in assay [2], above 0.501 µM.
On to `CN1CC[C@@](O)(c2cccc(-c3nc(-c4ccnc(NCCn5cccn5)n4)cs3)c2)C1=O` [Example 198], for which the IC50 in assay [1] was 0.1 to 0.5 µM; in assay [2] it was above 0.501 µM.
Take `CC(Nc1nccc(-c2csc(-c3cccc([C@]4(O)CCN(C)C4=O)c3)n2)n1)c1ncco1` (some centres unmarked) [Example 199]: the half-inhibitory concentration (IC50) was below 0.1 µM in assay [1] and above 0.501 µM in assay [2].
Regarding `Cc1cnc(CNc2nccc(-c3csc(-c4cccc([C@]5(O)CCN(C)C5=O)c4)n3)n2)o1` [Example 200], the IC50 in assay [1] is below 0.1 µM; in assay [2], above 0.501 µM.
On the same counts, the results for `CN1CCC(Nc2nccc(-c3csc(-c4cccc([C@]5(O)CCN(C)C5=O)c4)n3)n2)C1=O` (some centres unmarked) [Example 201] are above 0.501 µM and above 0.501 µM.
In the same order, the values of `Cc1cc(CNc2nccc(-c3csc(-c4cccc([C@]5(O)CCN(C)C5=O)c4)n3)n2)ccn1` [Example 202] are below 0.1 µM and above 0.501 µM.
For the compound `Cc1ccc(CNc2nccc(-c3csc(-c4cccc([C@]5(O)CCN(C)C5=O)c4)n3)n2)nc1` [Example 203], the IC50 is below 0.1 µM in assay [1] and above 0.501 µM in assay [2].
With `Cc1ccc(CNc2nccc(-c3csc(-c4cccc([C@]5(O)CCN(C)C5=O)c4)n3)n2)cn1` [Example 204], the figures for the IC50 in assay [1] and in assay [2] were below 0.1 µM and above 0.501 µM, respectively.
For `Cc1cccc(CNc2nccc(-c3csc(-c4cccc([C@]5(O)CCN(C)C5=O)c4)n3)n2)n1` [Example 205], the concentration for half-maximal inhibition (IC50) in assay [1] was below 0.1 µM; in assay [2], above 0.501 µM.
With `Cc1cccnc1CNc1nccc(-c2csc(-c3cccc([C@]4(O)CCN(C)C4=O)c3)n2)n1` [Example 206], the IC50 is below 0.1 µM in assay [1] and above 0.501 µM in assay [2].
Turning to `CC(Nc1nccc(-c2csc(-c3cccc([C@]4(O)CCN(C)C4=O)c3)n2)n1)c1ncccn1` (some centres unmarked) [Example 207], the IC50 is below 0.1 µM in assay [1] and above 0.501 µM in assay [2].
Take `Cc1cnc(CNc2nccc(-c3csc(-c4cccc([C@]5(O)CCN(C)C5=O)c4)n3)n2)nc1` [Example 208]: the IC50 in assay [1] and in assay [2] was above 0.501 µM in each case.
Regarding `Cc1cc(CNc2nccc(-c3csc(-c4cccc([C@]5(O)CCN(C)C5=O)c4)n3)n2)nn1C` [Example 209], the IC50 is below 0.1 µM in assay [1] and above 0.501 µM in assay [2].
Consider `Cc1nn(C)cc1CNc1nccc(-c2csc(-c3cccc([C@]4(O)CCN(C)C4=O)c3)n2)n1` [Example 210], for which the 50% inhibitory concentration (IC50) in assay [1] was below 0.1 µM; in assay [2], above 0.501 µM.
Turning to `CN1CC[C@@](O)(c2cccc(-c3nc(-c4ccnc(NCCc5cn(C)cn5)n4)cs3)c2)C1=O` [Example 211], the IC50 in assay [1] and in assay [2] was above 0.501 µM throughout.
Consider `CC(=O)N1CC[C@@H](Nc2nccc(-c3csc(-c4cccc([C@]5(O)CCN(C)C5=O)c4)n3)n2)C1` [Example 212], for which the IC50 in assay [1] is below 0.1 µM; in assay [2], above 0.501 µM.
On to `CN1CCO[C@@H](CNc2nccc(-c3csc(-c4cccc([C@]5(O)CCN(C)C5=O)c4)n3)n2)C1` [Example 213], for which the IC50 in assay [1] and in assay [2] was above 0.501 µM each time.
With `CN1CC[C@@](O)(c2cccc(-c3nc(-c4ccnc(N[C@@H]5[C@@H]6COC[C@@H]65)n4)cs3)c2)C1=O` [Example 214], the IC50 in assay [1] is 0.1 to 0.5 µM; in assay [2] it was above 0.501 µM.
As to `CO[C@H]1C[C@H](Nc2nccc(-c3csc(-c4cccc([C@]5(O)CCN(C)C5=O)c4)n3)n2)C1` [Example 215], the figures for the concentration for half-maximal inhibition (IC50) in assay [1] and in assay [2] were below 0.1 µM and above 0.501 µM, respectively.
For the compound `CN1CC[C@@](O)(c2cccc(-c3nc(-c4ccnc(N[C@@H]5CCC[C@H]5O)n4)cs3)c2)C1=O` [Example 216], the IC50 in assay [1] was 0.1 to 0.5 µM; in assay [2], above 0.501 µM.
With `CN1CC[C@@](O)(c2cccc(-c3nc(-c4ccnc(NCc5ccncn5)n4)cs3)c2)C1=O` [Example 217], the values for the IC50 in assay [1] and in assay [2] were 0.1 to 0.5 µM and above 0.501 µM, respectively.
As to `CN1CC[C@@](O)(c2cccc(-c3nc(-c4ccnc(NCc5ncccn5)n4)cs3)c2)C1=O` [Example 218], the IC50 in assay [1] is 0.1 to 0.5 µM; in assay [2], above 0.501 µM.
Take `Cc1ncccc1CNc1nccc(-c2csc(-c3cccc([C@]4(O)CCN(C)C4=O)c3)n2)n1` [Example 219]: the IC50 in assay [1] was below 0.1 µM; in assay [2], above 0.501 µM.
Consider `CN1CC[C@@](O)(c2cccc(-c3nc(-c4ccnc(NC5CC6CC(O)C5C6)n4)cs3)c2)C1=O` (some centres unmarked) [Example 220], for which the IC50 in assay [1] is 0.1 to 0.5 µM; in assay [2], above 0.501 µM.
On the same counts, the results for `CC(=O)N1CC[C@H](Nc2nccc(-c3csc(-c4cccc([C@]5(O)CCN(C)C5=O)c4)n3)n2)C1` [Example 221] are 0.1 to 0.5 µM and above 0.501 µM.
As for `CN1CC(Nc2nccc(-c3csc(-c4cccc([C@]5(O)CCN(C)C5=O)c4)n3)n2)CCC1=O` (some centres unmarked) [Example 222], the half-maximal inhibitory concentration (IC50) was below 0.1 µM in assay [1] and above 0.501 µM in assay [2].
As to `CN1CCC[C@H](Nc2nccc(-c3csc(-c4cccc([C@]5(O)CCN(C)C5=O)c4)n3)n2)C1=O` [Example 223], the IC50 in assay [1] and in assay [2] was above 0.501 µM each time.
`CN1CC[C@@](O)(c2cccc(-c3nc(-c4ccnc(NC5(c6ccccn6)CC5)n4)cs3)c2)C1=O` [Example 224]: the IC50 was 0.1 to 0.5 µM in assay [1] and above 0.501 µM in assay [2].
Consider `CN1CC[C@@](O)(c2cccc(-c3nc(-c4ccnc(NC5CCc6cccnc65)n4)cs3)c2)C1=O` (some centres unmarked) [Example 225], for which the values for the IC50 in assay [1] and in assay [2] were 0.1 to 0.5 µM and above 0.501 µM, respectively.
On to `CN1CC[C@@](O)(c2cccc(-c3nc(-c4ccnc(NC5(c6ncccn6)CC5)n4)cs3)c2)C1=O` [Example 226], for which the IC50 in assay [1] and in assay [2] was above 0.501 µM throughout.
With `CN1CC[C@@](O)(c2cccc(-c3nc(-c4ccnc(NC5CCOc6cccnc65)n4)cs3)c2)C1=O` (some centres unmarked) [Example 227], the IC50 was below 0.1 µM in assay [1] and above 0.501 µM in assay [2].
For `CN1CC[C@@](O)(c2cccc(-c3nc(-c4ccnc(NC5CCN(C6COC6)CC5)n4)cs3)c2)C1=O` [Example 228], the concentration for half-maximal inhibition (IC50) in assay [1] and in assay [2] was above 0.501 µM in each case.
Turning to `CC(Nc1nccc(-c2csc(-c3cccc([C@]4(O)CCN(C)C4=O)c3)n2)n1)C(=O)N1CCN(C)CC1` (some centres unmarked) [Example 229], the IC50 in assay [1] was 0.1 to 0.5 µM; in assay [2] it was above 0.501 µM.
As to `CN1CC[C@@](O)(c2cccc(-c3nc(-c4ccnc(NC5COC5)n4)cs3)c2)C1=O` [Example 230], the IC50 in assay [1] was below 0.1 µM; in assay [2] it was 0.1 to 0.5 µM.
For the compound `CN1CC[C@@](O)(c2cccc(-c3nc(-c4ccnc(NCCCNS(C)(=O)=O)n4)cs3)c2)C1=O` [Example 231], the IC50 was 0.1 to 0.5 µM in assay [1] and above 0.501 µM in assay [2].
In the same order, the values of `CN1CC[C@@](O)(c2cccc(-c3nc(-c4ccnc(NCCCS(C)(=O)=O)n4)cs3)c2)C1=O` [Example 232] are 0.1 to 0.5 µM and above 0.501 µM.
In the case of `Cc1nc(Nc2nccc(-c3csc(-c4cccc([C@]5(O)CCN(C)C5=O)c4)n3)n2)sc1C` [Example 233], the IC50 was below 0.1 µM in assay [1] and 0.1 to 0.5 µM in assay [2].
Regarding `CN1CC[C@@](O)(c2cccc(-c3nc(-c4ccnc(NCCC(F)(F)F)n4)cs3)c2)C1=O` [Example 236], the IC50 was below 0.1 µM in assay [1] and above 0.501 µM in assay [2].
In the same order, the values of `CN1CC[C@@](O)(c2cccc(-c3nc(-c4ccnc(NCCNS(C)(=O)=O)n4)cs3)c2)C1=O` [Example 237] are below 0.1 µM and above 0.501 µM.
In the same order, the values of `CN1CC[C@@](O)(c2cccc(-c3nc(-c4ccnc(NCCCOCC(F)(F)F)n4)cs3)c2)C1=O` [Example 238] are 0.1 to 0.5 µM and above 0.501 µM.
On to `CN1CC[C@@](O)(c2cccc(-c3nc(-c4ccnc(NCCC(C)(C)O)n4)cs3)c2)C1=O` [Example 239], for which the IC50 is 0.1 to 0.5 µM in assay [1] and above 0.501 µM in assay [2].
As for `CN1CC[C@@](O)(c2cccc(-c3nc(-c4ccnc(NCC5(O)CC5)n4)cs3)c2)C1=O` [Example 240], the results for the IC50 in assay [1] and in assay [2] were 0.1 to 0.5 µM and above 0.501 µM, respectively.
In the case of `CN1CC[C@@](O)(c2cccc(-c3nc(-c4ccnc(NC5CCC(F)(F)CC5)n4)cs3)c2)C1=O` [Example 241], the IC50 in assay [1] is below 0.1 µM; in assay [2], above 0.501 µM.
On to `COCCCNc1nccc(-c2csc(-c3cccc([C@]4(O)CCN(C)C4=O)c3)n2)n1` [Example 242], for which the IC50 is 0.1 to 0.5 µM in assay [1] and above 0.501 µM in assay [2].
In the case of `CN1CC[C@@](O)(c2cccc(-c3nc(-c4ccnc(N[C@H]5CC[C@@H](C#N)CC5)n4)cs3)c2)C1=O` [Example 243], the IC50 in assay [1] was below 0.1 µM; in assay [2], above 0.501 µM.
On the same counts, the results for `Cc1cn(CC(F)(F)F)nc1Nc1nccc(-c2csc(-c3cccc([C@]4(O)CCN(C)C4=O)c3)n2)n1` [Example 245] are above 0.501 µM and above 0.501 µM.
